Experiment [1] deals with HepG2 cells. The experiment in a line: Combined treatment effect of cabozantinib with cannabis-related compounds (cell viability). The format is cell-based. Conditions: Homo sapiens, read-out: IC50 with Cabozantinib. The method, then:
(§1) Cells (1.0×10^4) were seeded in 96-well plates and cultured in a medium for 24 hours. The cultured cells were treated with various concentrations of CBD and/or cabozantinib, etc., for 48 hours, and then cell viability was measured using a WST-8 assay kit (Biomax, SEOUL, Korea).
(§2) Specifically, HepG2 cells, a hepatoma cell line, were seeded at a concentration of 1×10^4 cells/well in a 96-well plate and cultured for 24 hours in an incubator at 37° C. and 10% CO2, then they were treated with cabozantinib at various concentrations and treated or not with cannabidiol (20 μM), and then cultured under the same conditions for 48 hours. After completion of the culture, 1/10 of the WST-8 solution (Quanti-Max™, BIOMAX, Korea) was added to the medium, and the culture was further conducted at 37° C. for 1 hour, the absorbance was measured at 450 nm to determine the cell viability, which was expressed as a ratio to the untreated control group. This experiment was conducted independently and repeated three times. Additionally, as positive control groups, sorafenib, lenvatinib, or regorafenib were treated instead of cabozantinib, respectively.

In experiment [2] the test system is pCDH-CNR1 HepG2 cells. Description: Cell viability in CNR1 overexpressing HepG2 cells with or without CBD. Format: cell-based. As to conditions: Homo sapiens. The method, then: as §1
(§3) Total RNA was extracted from normal liver tissues and cDNA was synthesized to clone a tagged CNR1 and CNR2 coding gene sequences into a pCDH-CMV-EF1-puro vector. The CNR1 and CNR2 genes were amplified by PCR using specific primers including 5′-extension and NotI (NEB, Ipswich, MA, USA) and XbaI (NEB) restriction sites. CloneAmp HiFi PCR Premix ([…], San Jose, CA, USA) was used for PCR reactions. Subsequently, amplicons were obtained from the PCR products by gel extraction, digested with NotI and XbaI enzymes, and cloned into the pCDH-CMV-EF1-puro vector using the In-Fusion® cloning system according to the manufacturer's instructions.
(§4) HepG2 cells were transfected with pCDH-CMV-EF1-puro including the tagged CNR1 and CNR2 coding sequences together with gag-pol and VSV-G plasmids (plasmids 14887 and 8454, respectively; Addgene, Cambridge, MA, USA). […] To confirm the specificity and efficiency of CNR1 and CNR2 overexpression, mRNA expression levels were analyzed using RT-PCR. […]

Experiment [3] deals with VEGFR2. As to conditions: known; cited from earlier work.
The test system of experiment [4] is pCDH-Ctrl HepG2 cells. Description: Cell viability in control vector (pCDH-Ctrl) HepG2 cells with or without CBD. Format: cell-based. Conditions: Homo sapiens. The method, then:
as §1, §3, §4

Experiment [5] has as its system tyrosine kinase c-Met. As to conditions: known; cited from earlier work.
In experiment [6] the test system is HepG2 cells. Description: Cell viability (WST-8) of anticancer agents with or without CBD. The format is cell-based, human. As to conditions: for IC50: Homo sapiens, HepG2, 48 h. Here is the method: Human HCC cell lines (HepG2 and Hep3B) were purchased from the American Type Culture Collection (ATCC). The cell lines were cultured in MEM (Gibco, Carlsbad, MD, USA) and DMEM (Gibco) supplemented with 10% FBS (Gibco), 100 U/mL penicillin, and 100 µg/mL streptomycin, respectively.
as §1, §2
A general note: Tetrazolium assays rely on reduction of a dye to a coloured formazan, in cell work by metabolically active cells.

Experiment [7] has as its system pCDH-CNR2 HepG2 cells. Description: Cell viability in CNR2 overexpressing HepG2 cells with or without CBD. Conditions: Homo sapiens. The format is cell-based. Here is the method: as §1, §3, §4
The test system of experiment [8] is p53. Description: Phosphorylation of p53 in presence of Chk2 inhibitor. Format: cell-based, human. As to conditions: with cabozantinib and CBD; FIG. 7B. The source says: (§5) Next, to determine whether Chk2 activated by combined treatment with cabozantinib and CBD affects apoptosis, the anti-apoptotic effect mediated by Chk2 inhibitors was confirmed.
Experiment [9] has as its system apoptotic proteins. The experiment in a line: Levels of apoptotic proteins in presence of Chk2 inhibitor. The format is cell-based, human. Conditions: with cabozantinib and CBD; FIG. 7B.
Text: as §5

The test system of experiment [10] is HepG2 cells. The experiment in a line: Apoptotic effect of combined treatment in presence of Chk2 inhibitor. The format is cell-based, human. Conditions: with cabozantinib and CBD; FIG. 7A.
Text: as §5

Experiment [11] relates to HepG2 cells. The experiment in a line: Inhibition of apoptosis by L-ascorbic acid. Format: cell-based, human. Conditions: ER stress induced by cabozantinib and CBD; FIG. 11. The method, then: (§6) Next, the effect of L-ascorbic acid (LAA), known to alleviate ER stress, on the inhibition of P53 activation and apoptosis was investigated. As a result, it was confirmed that p53 activation and apoptosis caused by ER stress induced by combined treatment with cabozantinib and CBD were suppressed when LAA was treated (FIG. 11).

The subject of experiment [12] is p53. Description: Inhibition of P53 activation by L-ascorbic acid. The format is cell-based, human. As to conditions: ER stress induced by cabozantinib and CBD; FIG. 11. Here is the method: as §6
Setting [13] is: HepG2, 48 h, combined with cabozantinib.
[14] abbreviates: HepG2, read-out: IC50 without CBD.
[15] abbreviates: with 20 μM CBD, read-out: IC50 with CBD.
[16] abbreviates: without CBD, read-out: IC50 without CBD.

Where two headings read alike, the source gives them in different places. A value given as a limit tells only on which side of the number the result lay.

In the case of `CCCCCc1cc(O)c2c(c1)OC(C)(C)[C@@H]1CCC(C)=C[C@@H]21` [THC, tetrahydrocannabinol], the IC50 in experiment [1] (HepG2, 48 h) amounted to 23.9 ± 0.55 µM.
In the case of `C=C(C)[C@@H]1CCC(C)=C[C@H]1c1c(O)cc(CCCCC)c(C(=O)O)c1O` [CBDA, cannabidiolic acid], the IC50 in experiment [1] (setting [13]) was 35.9 ± 1.35 µM.
Consider `COc1cc2nccc(Oc3ccc(NC(=O)C4(C(=O)Nc5ccc(F)cc5)CC4)cc3)c2cc1OC` [Cabozantinib], for which the half-inhibitory concentration (IC50) in [2] (HepG2, read-out: IC50 with CBD) was 20.2 µM; in [2] (setting [14]), over 100 µM; in experiment [4] (HepG2, read-out: IC50 with CBD) it was 16 µM; in experiment [4] (setting [14]), over 100 µM; in [6] (setting [15]), 15.8 µM; in experiment [6] (setting [16]) it was over 100 µM. The IC50 in experiment [7] (HepG2, read-out: IC50 with CBD) is 18.2 µM; in [7] (setting [14]), over 100 µM. In experiment [3], the “inhibition of VEGFR2” value is “inhibit tyrosine kinase c-Met and VEGFR2”. Moreover, the “inhibition of tyrosine kinase c-Met” value in [5] is “inhibit tyrosine kinase c-Met and VEGFR2”. Moreover, in experiment [6] (vs cabozantinib alone, 20 μM CBD, 48 h, FIG. 4A), the “toxicity of cabozantinib against HepG2 cells when combine treated with cannabidiol” value is recorded as “significantly increased”.
Consider `NC(=O)c1ccc2nc(-c3ccc(Oc4ccc(Cl)cc4)cc3)[nH]c2c1` [BML-277], for which, in experiment [8], the “effect on phosphorylation of p53” value is given as “reduced the phosphorylation of p53”. The “effect on levels of apoptotic proteins” value in experiment [9] is on record as “reduced”. In addition, the “effect on the apoptotic effect of combined treatment” value in experiment [10] was “inhibited the apoptotic effect”.
`CNC(=O)c1cc(Oc2ccc(NC(=O)Nc3ccc(Cl)c(C(F)(F)F)c3)c(F)c2)ccn1` [Regorafenib]: the figures for the half-maximal inhibitory concentration (IC50) in experiment [6] (setting [15]) and in [6] (setting [16]) were 9.74 µM and 14.1 µM, respectively.
In the case of `CCCCCc1cc2c(c(O)c1C(=O)O)[C@@H]1C=C(C)CC[C@H]1C(C)(C)O2` [THCA], the half-inhibitory concentration (IC50) in [1] (setting [13]) was determined as 30.4 ± 0.85 µM.
Regarding `CNC(=O)c1cc(Oc2ccc(NC(=O)Nc3ccc(Cl)c(C(F)(F)F)c3)cc2)ccn1` [Sorafenib], the IC50 was 9.24 µM in experiment [6] (setting [15]) and 14.6 µM in experiment [6] (setting [16]).
The matching figures for `COc1cc2nccc(Oc3ccc(NC(=O)NC4CC4)c(Cl)c3)c2cc1C(N)=O` [Lenvatinib]: over 100 µM and over 100 µM.
Turning to `O=C1O[C@H]([C@@H](O)CO)C(O)=C1O` [LAA, L-ascorbic acid], the “effect on apoptosis caused by ER stress” value in experiment [11] is reported as “suppressed”. Also, the “effect on p53 activation caused by ER stress” value in experiment [12] is on record as “suppressed”.

The term IC50 denotes the concentration that gives 50% inhibition.

Values taken from patent US20260335340A1, “PHARMACEUTICAL COMPOSITION FOR TREATING LIVER CANCER COMPRISING CANNABIDIOL AND ANTICANCER AGENT AS ACTIVE INGREDIENTS AND USE THEREOF” (NEOCANNBIO CO., LTD., priority 2022, published 2026).
